Measured values: ChEMBL document CHEMBL3108753, “FGFR1 Kinase Inhibitors: Close Regioisomers Adopt Divergent Binding Modes and Display Distinct Biophysical Signatures” (ACS Med Chem Lett, 2014)

Legend:
[1] = target: T1, Fibroblast growth factor receptor 1 (Homo sapiens, UniProt P11362); assay: Inhibition of N-terminal GST-tagged human recombinant FGFR1 (456 to 765) after 40 mins by mobility shift assay
[2] = target: T1, Fibroblast growth factor receptor 1; assay: Binding affinity to N-terminal 6xHis-tagged human recombinant FGFR1 (458 to 765) by isothermal titration calorimetric analysis

T1 sequence (P11362 whole entry): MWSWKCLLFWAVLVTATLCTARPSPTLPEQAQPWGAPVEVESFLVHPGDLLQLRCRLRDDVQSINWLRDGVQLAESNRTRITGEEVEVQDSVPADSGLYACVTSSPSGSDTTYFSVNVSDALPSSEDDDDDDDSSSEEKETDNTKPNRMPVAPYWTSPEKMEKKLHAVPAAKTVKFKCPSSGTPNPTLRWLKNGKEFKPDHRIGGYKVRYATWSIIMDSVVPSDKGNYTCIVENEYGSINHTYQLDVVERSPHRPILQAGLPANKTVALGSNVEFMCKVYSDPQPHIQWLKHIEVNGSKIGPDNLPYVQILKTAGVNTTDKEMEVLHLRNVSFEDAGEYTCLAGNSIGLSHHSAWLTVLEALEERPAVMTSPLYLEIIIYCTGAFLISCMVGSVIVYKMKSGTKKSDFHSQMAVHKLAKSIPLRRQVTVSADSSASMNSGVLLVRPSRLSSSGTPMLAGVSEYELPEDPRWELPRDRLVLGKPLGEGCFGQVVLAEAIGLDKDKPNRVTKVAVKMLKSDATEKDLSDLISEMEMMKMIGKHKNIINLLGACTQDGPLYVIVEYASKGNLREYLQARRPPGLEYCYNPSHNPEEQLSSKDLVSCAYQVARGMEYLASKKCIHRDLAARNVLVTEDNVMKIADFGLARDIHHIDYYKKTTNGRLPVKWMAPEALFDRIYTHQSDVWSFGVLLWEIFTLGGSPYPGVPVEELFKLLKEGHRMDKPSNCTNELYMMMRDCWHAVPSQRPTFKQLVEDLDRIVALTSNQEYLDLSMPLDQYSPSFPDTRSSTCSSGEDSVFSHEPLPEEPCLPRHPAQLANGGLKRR

IC50 ([1]; read-out: IC50) [nM] | Kd [2] [nM] | IC50 ([1]; read-out: pIC50 (converted)) [nM] | Compound
60 | 5.8 | – | COc1cc(CCc2cc(Nc3ccnc(NCc4cc(C)no4)n3)n[nH]2)cc(OC)c1
20000 | 447 | 100 | COc1ccc(CCc2cc(Nc3ccnc(NCc4cc(C)no4)n3)n[nH]2)cc1OC
